Experimental findings from patent US20230272010A1, “ANTIBACTERIAL SYNTHETIC-BIOINFORMATIC NATURAL PRODUCTS AND USES THEREOF” (The Rockefeller University, priority 2020, published 2023) are described below.

Usually MIC stands for the smallest concentration in the dilution series that meets the test's criterion for growth inhibition. Low values mean greater potency, high ones weaker potency. Broadly, the IC50 is the concentration that gives 50% inhibition.

Converted amounts (≈) assume the structure as drawn. Residues, ends and D or L forms follow the SMILES beside them.

Data set [1] has as its system A. baumannii. Kind of data set: MIC determination by broth microdilution. The data set is classed as cell-based, Acinetobacter baumannii. (In general: Broth dilution looks for growth in wells or tubes with falling amounts of substance.)
The test system of data set [2] is K. pneumoniae.
The test system of data set [3] is P. aeruginosa. Nature of the data set: MIC determination by broth microdilution. The data set is classed as cell-based, Pseudomonas aeruginosa.
The subject of data set [4] is E. coli DH5α. Kind of data set: MIC determination by broth microdilution. Format: cell-based, Escherichia coli.
Data set [5] relates to HeLa cells. Kind of data set: in vitro. Format: cell-based, human. The protocol: (§1) HeLa cells were grown in Dulbecco's Modified Eagle Medium (DMEM) supplemented with penicillin (10 units/mL), streptomycin (10 units/mL), […] (2 mM), and heat-inactivated fetal bovine serum (10% v/v) at 37° C. in a 5% CO2 atmosphere. HeLa cells were seeded into 384-well plates (500 cells per well) and incubated in DMEM at 37° C. with 5% CO2 for 16 h to allow cells to adhere. The OD570 readings were used to calculate relative growth (%) based on the positive (2 μM Taxol™, 0%) and negative (DMSO, 100%) controls. The cytotoxicity assay was performed in quadruplicate (n=4) and analyzed according to protocol reported previously (Chu Jet al., 2019, J. Am. Chem. Soc., 141:15737-15741).

In data set [6] the test system is M. tuberculosis H37Rv. Particulars: highest concentration tested 12.5 μg/mL.
The nature of data set [7]: in vitro. Format: cell-based, human. Particulars: human. The protocol:
as §1

The subject of data set [8] is Bacillus subtilis, Escherichia coli, and the ESKAPE pathogens. Kind of data set: Antibacterial activity / MIC against screening panel of bacteria. Format: cell-based. Particulars: panel of Gram-positive and Gram-negative bacteria, FIG. 4A. An excerpt:
To identify antibacterial active syn-BNPs, each fraction, containing the mass of a target syn-BNP cyclic peptide against Bacillus subtilis, Escherichia coli, and the ESKAPE pathogens, was screened. ESKAPE pathogens represented the bacteria most commonly associated with antibiotic-resistant nosocomial infections: Enterococcus faecium, Staphylococcus aureus, Klebsiella pneumoniae, Acinetobacter baumannii, Pseudomonas aeruginosa, and Enterobacter cloacae (Boucher H W et al., 2009, Clin. Infect. Dis., 48:1-12).
In the initial screen, semi-pure peptides were spotted on solid growth media seeded with each bacterium. […]
Standard susceptibility assays were performed in the appropriate growth medium in 96-well microtiter plates to determine the MIC by the broth microdilution method in accordance to protocols recommended by Clinical and Laboratory Standards Institute (Weinstein MP, 2012, Methods for dilution antimicrobial susceptibility tests for bacteria that grow aerobically, 9th edition; Clinical and Laboratory Standards Institute, Wayne, Pa.). For polymyxin-supplemented assays, the MIC of polymyxin against a bacterium was first determined (lx MIC). […] The measured MICs were as follows: E. coli DH5α (0.0625 μg/mL), K. pneumoniae and P. aeruginosa (0.15 μg/mL), A. baumannii ([…]), and E. cloacae (2 μg/mL). […]

Data set [9] has as its system S. aureus or B. subtilis. Nature of the data set: Membrane lysis assay (SYTOX fluorescence). Particulars: initial assays, FIG. 4C and 4D. Format: cell-based.
The test system of data set [10] is S. aureus farER deletion mutant with constitutive overexpression of the farER effux system (pALCfarER).
Data set [11] concerns S. aureus SH1000 ΔclpP. Particulars: clpP deletion.
In data set [12] the test system is S. aureus farER deletion mutant.

With polymyxin, the MIC of polymyxin in data set [1] is 0.3 μ/mL; in [2], 0.15 µg/mL; in data set [3] it was 0.15 µg/mL; in [4] it was 0.0625 µg/mL.

As to `CCCCCCCCCCCCCC(=O)N[C@H]1CCCNC(=O)[C@H](CC(C)C)NC(=O)[C@H](CCCNC(=N)N)NC(=O)[C@H]([C@@H](C)CC)NC(=O)[C@@H](CCCNC(=N)N)NC1=O` [SyCPA 63, thurinsyn] (HELM PEPTIDE1{[CCCCCCCCCCCCCC(=O)[*:2]].[Orn].[dR].I.R.L}$PEPTIDE1,PEPTIDE1,2:R3-6:R2$$$V2.0), the figures for the MIC in [2] and in data set [6] were 8 µg/mL (≈ 9.27 µM) and 6 µg/mL (≈ 6.95 µM), respectively. In data set [5], the “Cytotoxicity (in words)” value is on record as “minimal HeLa cell cytotoxicity”.

In the case of `CCCCCCCCCCCC1CC(=O)N[C@H](Cc2ccccc2)C(=O)N[C@H](CCCN)C(=O)N[C@@H](C(C)C)C(=O)N[C@@H]([C@@H](C)CC)C(=O)N[C@@H](Cc2ccccc2)C(=O)N[C@@H](C)C(=O)N[C@@H](Cc2ccccc2)C(=O)N1` (stereo partly shown) [SyCPA 144, mucilasyn] (HELM PEPTIDE1{A.F.[CCCCCCCCCCCC(CC(=O)[*:2])N[*:1]].[dF].[NCCC[C@@H](N[*:1])C(=O)[*:2]].V.I.F}$PEPTIDE1,PEPTIDE1,1:R1-8:R2$$$V2.0), the “Cytotoxicity (in words)” value in data set [5] is given as “lack of toxicity to human cells in vitro”.

`CCCCCCCCCCCCCC(=O)N[C@@H]1CNC(=O)[C@@H]2CCCN2C(=O)[C@H](Cc2ccccc2)NC(=O)[C@@H](C(C)C)NC(=O)[C@H](C)NC(=O)[C@@H](CCC(N)=O)NC(=O)[C@H]2CCCN2C1=O` [SyCPA 2] (HELM PEPTIDE1{[CCCCCCCCCCCCCC(=O)[*:2]].[O=C([C@@H](CN[*:3])N[*:1])[*:2]].[dP].[dQ].A.[dV].F.P}$PEPTIDE1,PEPTIDE1,2:R3-8:R2$$$V2.0) displayed an IC50 in [7] of 16 µg/mL (≈ 17.1 µM). The Spectrum of activity result in data set [8] is “broader Gram-positive activity”. The “SYTOX or DiSC3(5) fluorescence” value in data set [9] is on record as “slight increase in either SYTOX or DiSC3(5) fluorescence”.

For `CCCCCCCCCCCC1CC(=O)N[C@H](CC(C)C)C(=O)N[C@H](CN)C(=O)N[C@@H](C(C)C)C(=O)N[C@@H](CO)C(=O)N[C@@H]([C@@H](C)CC)C(=O)N1` (stereo partly drawn) [SyCPA 116, collimosyn] (HELM PEPTIDE1{I.[CCCCCCCCCCCC(CC(=O)[*:2])N[*:1]].[dL].[NC[C@@H](N[*:1])C(=O)[*:2]].V.S}$PEPTIDE1,PEPTIDE1,1:R1-6:R2$$$V2.0), the MIC in data set [10] was greater than 64 µg/mL; in [12], 8 µg/mL (≈ 11 µM). In addition, the “Cytotoxicity (in words)” value in data set [5] was “showed human cell line toxicity”. It took 11 µg/mL (≈ 15.2 µM) to reach half-maximal inhibition in data set [7] (IC50). For the same compound, in data set [11], the “Resistance (MIC)” value was greater than 128 µg/mL.
